The subject of one test is HCV replicon genotype 1a. The experiment in a line: microbe, parasite or virus in culture. The format is cell-based. As to conditions: genotype 1a replicon cells, incubated 96 hours, NS3/4A ELISA readout. Background: In antiviral work, replicon cells carry a viral genome segment that copies itself.
A further test has as its system HCV replicon genotype 1b. Kind of test: microbe, parasite or virus in culture. The format is cell-based. As to conditions: genotype 1b replicon cells, incubated 96 hours, NS3/4A ELISA readout.

Structures are written as SMILES. pIC50: −log10 of the molar value.

A word on the pIC50: it is the IC50 on a negative log10 scale, so that one unit is a factor of ten. Higher therefore signals a low IC50. Regarding `CNC(=O)c1c(-c2ccc(F)cc2)oc2cc(N(C)S(C)(=O)=O)c(-c3cc4c(cn3)OCn3c-4cc4cccnc43)cc12` [Compound 50], the pIC50 in the test on HCV replicon genotype 1a (Hepatitis C virus, 96 h) was 7.82; with HCV replicon genotype 1b (Hepatitis C virus, 96 h) it was 8.34.

With `CNC(=O)c1c(-c2ccc(F)cc2)oc2cc(N(C)S(C)(=O)=O)c(-c3ccc4c(n3)-c3cc5c(F)cccc5n3C(CNCCOC)O4)cc12` (stereo not shown) [Compound 120], the pIC50 was 8.37 with HCV replicon genotype 1a (Hepatitis C virus, 96 h) and 8.68 with HCV replicon genotype 1b (Hepatitis C virus, 96 h).

Regarding `CNC(=O)c1c(-c2ccc(F)cc2)oc2cc(-c3ccnn3C)c(-c3ccc4c(n3)-c3cc5c(F)cccc5n3CO4)cc12` [Compound 165, 5-(11-fluoro-6H-pyrido[2′,3′:5,6][1,3]oxazino[3,4-a]indol-2-yl)-2-(4-fluorophenyl)-N-methyl-6-(1-methyl-1H-pyrazol-5-yl)benzofuran-3-carboxamide], the pIC50 in the test on HCV replicon genotype 1a (Hepatitis C virus, 96 h) is 7.57; in the test with HCV replicon genotype 1b (Hepatitis C virus, 96 h) it was 8.01.

Consider `CNC(=O)c1c(-c2ccc(F)cc2)oc2cc(N(C)S(C)(=O)=O)c(-c3nc4c(cc3F)OCn3c-4cc4c(F)cccc43)cc12` [Compound 27], for which the pIC50 in the test with HCV replicon genotype 1a (Hepatitis C virus, 96 h) is 8.54; in the test with HCV replicon genotype 1b (Hepatitis C virus, 96 h), 8.21.

For the compound `CNC(=O)c1c(-c2ccc(F)cc2)oc2cc(N(C)S(C)(=O)=O)c(-c3ccc4c(n3)-c3cc5c(F)cccc5n3C(C(N)=O)O4)cc12` (stereo not shown) [Compound 106, 11-fluoro-2-(2-(4-fluorophenyl)-3-(methylcarbamoyl)-6-(N-methylmethylsulfonamido)benzofuran-5-yl)-6H-pyrido[2′,3′:5,6][1,3]oxazino[3,4-a]indole-6-carboxamide], the pIC50 in the test with HCV replicon genotype 1a was 8.26; with HCV replicon genotype 1b it was 8.62.

Take `CNC(=O)c1c(-c2ccc(F)cc2)oc2cc(N(C)S(C)(=O)=O)c(-c3ccc4c(n3)-c3cc5c(F)cccc5n3C(CNC(=O)[C@@H](NC(=O)OC)C(C)C)O4)cc12` (stereo partly shown) [Compound 125]: the pIC50 in the test with HCV replicon genotype 1a (Hepatitis C virus, 96 h) was 8.29; in the test with HCV replicon genotype 1b, 8.47.

For the compound `CNC(=O)c1c(-c2ccc(F)cc2)oc2cc(N(C)S(C)(=O)=O)c(-c3ccc4c(n3)-c3c(F)c5c(F)cccc5n3CO4)cc12` [Compound 59], the pIC50 was 8.60 in the test with HCV replicon genotype 1a (Hepatitis C virus, 96 h) and 8.38 in the test with HCV replicon genotype 1b (Hepatitis C virus, 96 h).

`CNC(=O)c1c(-c2ccc(F)cc2)oc2cc(N(C)S(C)(=O)=O)c(-c3ccc4c(n3)-c3cc5c(F)cccc5n3C(C)(CO)O4)cc12` (stereo not shown) [Compound 92]: the negative-log IC50 (pIC50) in the test with HCV replicon genotype 1a is 8.38; in the test on HCV replicon genotype 1b, 8.19.

For the compound `CNC(=O)c1c(-c2ccc(F)cc2)oc2cc(N(C)S(C)(=O)=O)c(-c3ccc4c(n3)-c3cc5cccc(F)c5n3CO4)cc12` [Compound 20], the pIC50 in the test on HCV replicon genotype 1a (Hepatitis C virus, 96 h) is 8.17; in the test with HCV replicon genotype 1b (Hepatitis C virus, 96 h), 8.16.

On to `CNC(=O)c1c(-c2ccc(F)cc2)oc2cc(N(C)S(C)(=O)=O)c(-c3ccc4c(n3)-c3cc5c(F)cccc5n3C(CO)O4)cc12` (stereo not shown) [Compound 87, 5-(11-fluoro-6-(hydroxymethyl)-6H-pyrido[2′,3′:5,6][1,3]oxazino[3,4-a]indol-2-yl)-2-(4-fluorophenyl)-N-methyl-6-(N-methylmethylsulfonamido)benzofuran-3-carboxamide], for which the pIC50 in the test on HCV replicon genotype 1a (Hepatitis C virus, 96 h) is 8.52; in the test with HCV replicon genotype 1b (Hepatitis C virus, 96 h) it was 8.48.

In the case of `CNC(=O)c1c(-c2ccc(F)cc2)oc2cc(N(C)S(C)(=O)=O)c(-c3ccc4c(n3)-c3cc5c(F)cccc5n3C(CCO)O4)cc12` (stereo not shown) [Compound 100, 5-(11-fluoro-6-(2-hydroxyethyl)-6H-pyrido[2′,3′:5,6][1,3]oxazino[3,4-a]indol-2-yl)-2-(4-fluorophenyl)-N-methyl-6-(N-methylmethylsulfonamido)benzofuran-3-carboxamide], the pIC50 in the test with HCV replicon genotype 1a was 8.48; in the test with HCV replicon genotype 1b it was 8.44.

As to `CNC(=O)c1c(-c2ccc(F)cc2)oc2cc(N(C)S(C)(=O)=O)c(-c3ccc4c(n3)-c3cc5c(F)cccc5n3C(C(=O)NC(C)C)O4)cc12` (stereo not shown) [Compound 111], the pIC50 in the test on HCV replicon genotype 1a (Hepatitis C virus, 96 h) was 8.35; with HCV replicon genotype 1b (Hepatitis C virus, 96 h), 8.37.

For `CNC(=O)c1c(-c2ccc(F)cc2)oc2cc(N(C)S(C)(=O)=O)c(-c3ncc4c(n3)-c3cc5ccccc5n3C(C)O4)cc12` (stereo not shown) [Compound 9], the pIC50 in the test with HCV replicon genotype 1a (Hepatitis C virus, 96 h) is 8.96; in the test with HCV replicon genotype 1b (Hepatitis C virus, 96 h) it was 8.72.

Take `CNC(=O)c1c(-c2ccc(F)cc2)oc2cc(N(C)S(C)(=O)=O)c(-c3ccc4c(n3)-c3cc5c(F)cccc5n3C(CNCC(=O)O)O4)cc12` (stereo not shown) [Compound 116, 2-(((11-fluoro-2-(2-(4-fluorophenyl)-3-(methylcarbamoyl)-6-(N-methylmethylsulfonamido)benzofuran-5-yl)-6H-pyrido[2′,3′:5,6][1,3]oxazino[3,4-a]indol-6-yl)methyl)amino)acetic acid]: the pIC50 in the test with HCV replicon genotype 1a (Hepatitis C virus, 96 h) was 7.28; in the test with HCV replicon genotype 1b (Hepatitis C virus, 96 h), 8.03.

As for `CNC(=O)c1c(-c2ccc(F)cc2)oc2cc(N(C)S(C)(=O)=O)c(-c3ccc4c(n3)-c3cc5c(F)cccc5n3C(C(=O)NC)O4)cc12` (stereo not shown) [Compound 110], the pIC50 with HCV replicon genotype 1a was 8.52; in the test with HCV replicon genotype 1b, 8.32.

With `CNC(=O)c1c(-c2ccc(F)cc2)oc2cc(C#N)c(-c3ccc4c(n3)-c3cc5c(F)cccc5n3CO4)cc12` [Compound 180, 6-cyano-5-(11-fluoro-6H-pyrido[2′,3′:5,6][1,3]oxazino[3,4-a]indol-2-yl)-2-(4-fluorophenyl)-N-methylbenzofuran-3-carboxamide], the pIC50 was 8.52 in the test on HCV replicon genotype 1a (Hepatitis C virus, 96 h) and 8.28 with HCV replicon genotype 1b (Hepatitis C virus, 96 h).

`CNC(=O)c1c(-c2ccc(F)cc2)oc2cc(N(C)S(C)(=O)=O)c(-c3cc4c(c[n+]3[O-])OCn3c-4cc4c(F)cccc43)cc12` [Compound 74]: the pIC50 with HCV replicon genotype 1a (Hepatitis C virus, 96 h) is 7.82; in the test on HCV replicon genotype 1b (Hepatitis C virus, 96 h) it was 7.60.

Regarding `CNC(=O)c1c(-c2ccc(F)cc2)oc2cc(N(C)S(C)(=O)=O)c(-c3ccc4c(c3)-c3[nH]c5ccccc5c3C(c3ccccc3)O4)cc12` (stereo not shown) [Compound 63, 2-(4-fluorophenyl)-N-methyl-6-(N-methylmethylsulfonamido)-5-(6-phenyl-6,11-dihydrochromeno[4,3-b]indol-2-yl)benzofuran-3-carboxamide], the pIC50 in the test with HCV replicon genotype 1a (Hepatitis C virus, 96 h) was 7.04; in the test with HCV replicon genotype 1b (Hepatitis C virus, 96 h), 7.08.

`CNC(=O)c1c(-c2ccc(F)cc2)oc2cc(N(C)S(C)(=O)=O)c(-c3cnc4c(c3)-c3nc5ccccn5c3CO4)cc12` [Compound 144, 2-(4-fluorophenyl)-N-methyl-6-[methyl(methylsulfonyl)amino]-5-(6H pyrido[1″,2″:1′,2′]imidazo[4′,5′:4,5]pyrano[2,3-b]pyridin-2-yl)-1-benzofuran-3-carboxamide]: the pIC50 was 8.54 with HCV replicon genotype 1a (Hepatitis C virus, 96 h) and 8.72 in the test on HCV replicon genotype 1b (Hepatitis C virus, 96 h).

As to `CNC(=O)c1c(-c2ccc(F)cc2)oc2cc(N(CC(F)F)S(C)(=O)=O)c(-c3ccc4c(n3)-c3cc5c(C#N)cccc5n3CO4)cc12` [Compound 188], the pIC50 with HCV replicon genotype 1a (Hepatitis C virus, 96 h) is 8.42; in the test on HCV replicon genotype 1b (Hepatitis C virus, 96 h), 8.43.

In the case of `CN(c1cc2oc(-c3ccc(F)cc3)c(C(=O)NC3CC3)c2cc1-c1ccc2c(n1)-c1cc3c(F)cccc3n1CO2)S(C)(=O)=O` [Compound 157], the pIC50 in the test on HCV replicon genotype 1a (Hepatitis C virus, 96 h) is 8.12; in the test on HCV replicon genotype 1b (Hepatitis C virus, 96 h), 7.96.

For `CNC(=O)c1c(-c2ccc(F)cc2)oc2cc(N(CC3CC3)S(C)(=O)=O)c(-c3ccc4c(n3)-c3cc5c(F)cccc5n3CO4)cc12` [Compound 200], the pIC50 with HCV replicon genotype 1a (Hepatitis C virus, 96 h) is 7.85; in the test with HCV replicon genotype 1b (Hepatitis C virus, 96 h) it was 7.66.

On to `CNC(=O)c1c(-c2ccc(F)cc2)oc2cc(N(CCF)S(C)(=O)=O)c(-c3ccc4c(n3)-c3cc5ccccc5n3CO4)cc12` [Compound 189], for which the pIC50 in the test with HCV replicon genotype 1a (Hepatitis C virus, 96 h) was 8.54; with HCV replicon genotype 1b (Hepatitis C virus, 96 h) it was 8.36.

In the case of `CNC(=O)c1c(-c2ccc(F)cc2)oc2cc(N(C)S(C)(=O)=O)c(-c3ccc4c(n3)-c3cc5c(F)cccc5n3C(CNC(=O)[C@@H](NC(=O)OC)C(C)C)O4)cc12` (stereo partly shown) [Compound 127], the pIC50 in the test with HCV replicon genotype 1a is 8.46; in the test with HCV replicon genotype 1b, 8.80.

Take `CNC(=O)c1c(-c2ccc(F)cc2)oc2cc(N(CC(C)O)S(C)(=O)=O)c(-c3ccc4c(n3)-c3cc5c(F)cccc5n3CO4)cc12` (stereo not shown) [Compound 203]: the values for the pIC50 in the test on HCV replicon genotype 1a and with HCV replicon genotype 1b were 8.54 and 8.05, respectively.

In the case of `CCNC(=O)C1Oc2ccc(-c3cc4c(C(=O)NC)c(-c5ccc(F)cc5)oc4cc3N(C)S(C)(=O)=O)nc2-c2cc3c(F)cccc3n21` (stereo not shown) [Compound 108], the pIC50 was 7.85 in the test with HCV replicon genotype 1a and 8.62 in the test with HCV replicon genotype 1b.

Consider `CNC(=O)c1c(-c2ccc(F)cc2)oc2cc(N(C)S(C)(=O)=O)c(-c3ccc4c(n3)-c3cc5c(F)cccc5n3C(CO)(CO)O4)cc12` [Compound 94], for which the pIC50 in the test with HCV replicon genotype 1a (Hepatitis C virus, 96 h) was 8.64; in the test on HCV replicon genotype 1b (Hepatitis C virus, 96 h), 8.25.

Consider `CNC(=O)c1c(-c2ccc(F)cc2)oc2cc(N(C)S(C)(=O)=O)c(-c3ccc4c(n3)-c3cc5c(F)cccc5n3C(C(=O)O)O4)cc12` (stereo not shown) [Compound 112], for which the pIC50 in the test with HCV replicon genotype 1a (Hepatitis C virus, 96 h) was 7.70; with HCV replicon genotype 1b (Hepatitis C virus, 96 h), 7.64.

For the compound `CNC(=O)c1c(-c2ccc(F)cc2F)oc2cc(N(C)S(C)(=O)=O)c(-c3ccc4c(n3)-c3cc5c(F)cccc5n3CO4)cc12` [Compound 147, 2-(2,4-difluorophenyl)-5-(11-fluoro-6H-pyrido[2′,3′:5,6][1,3]oxazino[3,4-a]indol-2-yl)-N-methyl-6-(N-methylmethylsulfonamido)benzofuran-3-carboxamide], the pIC50 was 8.05 in the test on HCV replicon genotype 1a (Hepatitis C virus, 96 h) and 8.16 in the test with HCV replicon genotype 1b (Hepatitis C virus, 96 h).

As for `CNC(=O)c1c(-c2ccc(F)cc2)oc2cc(N(C)S(C)(=O)=O)c(-c3ccc4c(c3)-c3cc5c(F)cccc5n3CO4)cc12` [Compound 43, 5-(11-fluoro-6H-benzo[5,6][1,3]oxazino[3,4-a]indol-2-yl)-2-(4-fluorophenyl)-N-methyl-6-(N-methylmethylsulfonamido)benzofuran-3-carboxamide], the pIC50 in the test with HCV replicon genotype 1a (Hepatitis C virus, 96 h) was 8.62; with HCV replicon genotype 1b (Hepatitis C virus, 96 h), 8.41.

As for `CNC(=O)c1c(-c2ccc(F)cc2)oc2cc(N(C)S(C)(=O)=O)c(-c3ccc4c(c3)-c3cc5cccnc5n3CO4)cc12` [Compound 49], the pIC50 is 9.22 in the test on HCV replicon genotype 1a (Hepatitis C virus, 96 h) and 8.77 in the test on HCV replicon genotype 1b (Hepatitis C virus, 96 h).

Consider `CNC(=O)c1c(-c2ccc(F)cc2)oc2cc(N(C)S(C)(=O)=O)c(-c3ccc4oc(=O)n5c6ccccc6cc5c4c3)cc12` [Compound 53, 2-(4-fluorophenyl)-N-methyl-6-(N-methylmethylsulfonamido)-5-(6-oxo-6H-benzo[5,6][1,3]oxazino[3,4-a]indol-2-yl)benzofuran-3-carboxamide], for which the pIC50 with HCV replicon genotype 1a (Hepatitis C virus, 96 h) was 8.10; with HCV replicon genotype 1b (Hepatitis C virus, 96 h), 8.10.

For the origin of these results see patent publication US9265773B2, “Tetracyclic heterocycle compounds and methods of use thereof for the treatment of viral diseases” (priority 2011, dated 2016).
